Where two headings read alike, the source gives them in different places.
Columns and labels:
Format in all cases: cell-based, human
MYB mRNA = assay: Splicing RT-qPCR assay, MYB canonical (CJ) and alternative (AJ) junction mRNA; details: Homo sapiens; for AC50: read-out: MYB AJ (AC50, increase in alternative junction mRNA)
In short: (§1)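 Compound-induced exon inclusion is tracked as an increase in AJ transcript alongside the CJ transcript. Cells (A673 normalized to PPIA; K562 to GAPDH or GUSB) are dosed 24 h with a serial dilution topping at 10 uM, ≤0.25% DMSO, then lysed and analysed by RT-qPCR in at least duplicate.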

SMN2 mRNA = assay: Splicing RT-qPCR gene panel, SMN2 canonical junction (CJ) mRNA; details: Homo sapiens, Tables 4A/4B, read-out: SMN2 (IC50, decrease in CJ mRNA, gene panel)
Procedure: (§2) Compounds described herein were used to modulate RNA transcript abundance in cells. The expression of a target mRNA was measured by detecting the formation of an exon-exon junction in the canonical transcript (CJ). A compound mediated exon-inclusion event was detected by observing an increase in formation of a new junction with an alternative exon (AJ). Real-time qPCR assays were used to detect these splicing switches and interrogate the potency of various compounds towards different target genes. A high-throughput real time quantitative PCR (RT-qPCR) assay was developed to measure these two isoforms of the mRNA (CJ and AJ) for exemplary genes, such as HTT, SMN2, and MYB, together with a control housekeeping gene, GAPDH or GUSB or PPIA, used for normalization. Briefly, the A673 or K562 cell line was treated with various compounds described herein (e.g., compounds of Formula (I)). After treatment, the levels of the HTT, MYB, or SMN2 mRNA targets were determined from each sample of cell lysate by cDNA synthesis followed by qPCR.
(§3) The A673 cell line was cultured in DMEM with 10% FBS. Cells were diluted with full growth media and plated in a 96-well plate (15,000 cells in 100 ul media per well). The plate was incubated at 37° C. with 5% CO2 for 24 hours to allow cells to adhere. An 11-point 3-fold serial dilution of the compounds was made in DMSO then diluted in media in an intermediate plate. Compounds were transferred from the intermediate plate to the cell plate with the top dose at a final concentration of 10 uM in the well. Final DMSO concentration was kept at or below 0.25%. The cell plate was returned to the incubator at 37° C. with 5% CO2 for an additional 24 hours.
(§4) The K562 cell line was cultured in IMDM with 10% FBS. For K562, cells were diluted with full growth media and plated in either a 96-well plate (50,000 cells in 50 uL media per well) or a 384-well plate (8,000-40,000 cells in 45 uL media per well). An 11-point 3-fold serial dilution of the compounds were made in DMSO then diluted in media in an intermediate plate. Compound was transferred from the intermediate plate to the cell plate with the top dose at a final concentration of 10 uM in the well. Final DMSO concentration was kept at or below 0.25%. Final volume was 100 uL for 96-well plate and 50 uL for 384-well plate. The cell plate was then placed in an incubator at 37° C. with 5% CO2 for 24 hours.
(§5) The cells were then gently washed with 50 uL-100 uL cold PBS before proceeding to addition of lysis buffer. 30 uL-50 uL of room temperature lysis buffer with DNAse I (and optionally RNAsin) was added to each well. Cells were shaken/mixed thoroughly at room temperature for 5-10 minutes for lysis to take place and then 3 uL-5 uL of room temperature stop solution was added and wells were shaken/mixed again. After 2-5 minutes, the cell lysate plate was transferred to ice for RT-qPCR reaction setup. The lysates could also be frozen at −80° C. for later use.
(§6) In some cases, a direct lysis buffer was used. An appropriate volume of 3× lysis buffer (10 mM Tris, 150 mM NaCl, 1.5%-2.5% Igepal and 0.1-1 U/uL RNAsin, pH 7.4) was directly added to either K562 or A673 cells in media and mixed by pipetting 3 times. The plates were then incubated at room temperature with shaking/rocking for 20-50 minutes to allow for lysis to take place. After this time, the cell lysate plate was transferred to ice to set up for the RT-qPCR reactions. The lysates could also be frozen at −80° C. for later use.
(§7) To set up 10 uL RT-qPCR reactions, cell lysates were transferred to 384-well qPCR plates containing the master mix according to the table below. The plates were sealed, gently vortexed, and spun down before the run. The volumes were adjusted accordingly in some instances where the reaction was carried in 20 μL. The table below summarizes the components of the RT-qPCR reactions:
(§8) The RT-qPCR reaction was performed using a QuantStudio (ThermoFisher) under the following fast cycling conditions. […]

Target C mRNA = assay: Splicing RT-qPCR gene panel, Target C canonical junction (CJ) mRNA; details: Homo sapiens, Tables 4A/4B, read-out: Target C (IC50, decrease in CJ mRNA, gene panel)
Procedure: as §2, §3, §4, §5, §6, §7, §8

HTT mRNA [1] = assay: Splicing RT-qPCR gene panel, HTT canonical junction (CJ) mRNA; details: Homo sapiens, Tables 4A/4B, read-out: HTT (IC50, decrease in CJ mRNA, gene panel)
Procedure: as §2, §3, §4, §5, §6, §7, §8

HTT mRNA [2] = assay: Splicing RT-qPCR assay, HTT canonical (CJ) and alternative (AJ) junction mRNA; details: Homo sapiens, A673 or K562 cells, 24 hours compound treatment; for IC50: read-out: HTT CJ (IC50, decrease in canonical junction mRNA); for AC50: read-out: HTT AJ (AC50, increase in alternative junction mRNA)
In short: as §1

[3] = 24 h, A673 or K562 cells, 24 hours compound treatment, RT-qPCR
[4] = 24 h, A673 or K562 cells, 24 hours compound treatment, RT-qPCR, read-out: MYB CJ (IC50, decrease in canonical junction mRNA)
[5] = A673 or K562 cells, 24 hours compound treatment, RT-qPCR
[6] = A673 or K562 cells, 24 hours compound treatment, RT-qPCR, read-out: MYB CJ (IC50, decrease in canonical junction mRNA)

Compound | IC50 (MYB mRNA; Tables 4A/4B, canonical junction qPCR panel, read-out: MYB (IC50, decrease in CJ mRNA, gene panel)) | IC50 (SMN2 mRNA) | IC50 (Target C mRNA) | IC50 (HTT mRNA [1]) | AC50 (MYB mRNA; [3]) | IC50 (MYB mRNA; [4]) | IC50 (HTT mRNA [2]; 24 h) | AC50 (HTT mRNA [2]) | AC50 (MYB mRNA; [5]) | IC50 (MYB mRNA; [6]) | IC50 (HTT mRNA [2])
Cc1cn2cc(NC(=O)c3ccc(N4CC[C@H](NC5(CF)CC5)C4)c4cn(C)nc34)cc(F)c2n1 (single isomer, unassigned) [Compound 449] | < 0.1 µM | < 0.1 µM | > 10 µM | 1 to 10 µM |  |  |  |  |  |  | 
Cc1cn2cc(NC(=O)c3ccc(N4CC[C@@H](N5C[C@@H](C)N[C@@H](C)C5)C4)c4cn(C)nc34)cc(F)c2n1 [Compound 621, 4-[(3R)-3-[(3R,5S)-3,5-dimethylpiperazin-1-yl]pyrrolidin-1-yl]-N-{8-fluoro-2-methylimidazo[1,2-a]pyridin-6-yl}-2-methylindazole-7-carboxamide] |  |  |  |  | 0.1 to 1 µM | 1 to 10 µM | > 10 µM | > 10 µM |  |  | 
Cc1cn2cc(NC(=O)c3ccc(N4CCC(N5C6CNCC65)C4)c4cn(C)nc34)cc(F)c2n1 (stereo not drawn) [Compound 622, 4-(3-{3,6-diazabicyclo[3.1.0]hexan-6-yl}pyrrolidin-1-yl)-N-{8-fluoro-2-methylimidazo[1,2-a]pyridin-6-yl}-2-methylindazole-7-carboxamide] |  |  |  |  |  |  |  | > 10 µM | > 10 µM | 1 to 10 µM | > 10 µM
CN[C@@H]1CCN(c2ccc(C(=O)Nc3nc(OC)c4nn(C)cc4n3)c3nn(C)cc23)C1 [Compound 624, N-{7-methoxy-2-methylpyrazolo[4,3-d]pyrimidin-5-yl}-2-methyl-4-[(3R)-3-(methylamino)pyrrolidin-1-yl]indazole-7-carboxamide] |  |  |  |  | 1 to 10 µM | 1 to 10 µM | 1 to 10 µM | 1 to 10 µM |  |  | 
CN[C@@H]1CCN(c2ccc(C(=O)Nc3cn4cc(C)nc4c(OC4CC4)n3)c3nn(C)cc23)C1 [Compound 626, N-{8-cyclopropoxy-2-methylimidazo[1,2-a]pyrazin-6-yl}-2-methyl-4-[(3R)-3-(methylamino)pyrrolidin-1-yl]indazole-7-carboxamide] |  |  |  |  | 0.1 to 1 µM | 0.1 to 1 µM | 1 to 10 µM | 1 to 10 µM |  |  | 
CCn1cc2c(N3CCC(NC4CC4)CC3)cc(Cl)c(C(=O)Nc3cc(F)c4nc(C)cn4c3)c2n1 [Compound 627] |  |  |  |  | 0.1 to 1 µM | 0.1 to 1 µM | 1 to 10 µM | 1 to 10 µM |  |  | 
Cc1cn2cc(NC(=O)c3ccc(N4CCC(N5C6COCC65)C4)c4cn(C)nc34)cc(F)c2n1 (stereo not drawn) [Compound 629] |  |  |  |  |  |  |  | 1 to 10 µM | 1 to 10 µM | 1 to 10 µM | 1 to 10 µM
CNc1nc(NC(=O)c2ccc(N3CC[C@@H](NC)C3)c3cn(C)nc23)cn2cc(C)nc12 [Compound 631, 2-methyl-N-[2-methyl-8-(methylamino)imidazo[1,2-a]pyrazin-6-yl]-4-[(3R)-3-(methylamino)pyrrolidin-1-yl]indazole-7-carboxamide] |  |  |  |  | 1 to 10 µM | 1 to 10 µM | > 10 µM | > 10 µM |  |  | 
Cc1cn2cc(NC(=O)c3ccc(N4CC[C@@H](NC5C6COCC65)C4)c4cn(C)nc34)cc(F)c2n1 (stereo partly drawn) [Compound 633] |  |  |  |  | 0.1 to 1 µM | 0.1 to 1 µM | 1 to 10 µM | > 10 µM |  |  | 
CCn1cc2c(N3CC[C@@H](NC)C3)cc(O)c(C(=O)Nc3cc(F)c4nc(C)cn4c3)c2n1 [Compound 635] |  |  |  |  | 1 to 10 µM | 0.1 to 1 µM | > 10 µM | > 10 µM |  |  | 
CCn1cc2c(N3CC[C@@H](N(C)C)C3)cc(O)c(C(=O)Nc3cc(F)c4nc(C)cn4c3)c2n1 [Compound 637] |  |  |  |  | 1 to 10 µM | 0.1 to 1 µM | 1 to 10 µM | 1 to 10 µM |  |  | 
Cc1cn2cc(NC(=O)c3ccc(N4CC[C@@H](NCC5(O)CC5)C4)c4cn(C)nc34)cc(F)c2n1 [Compound 639] |  |  |  |  | 0.1 to 1 µM | 0.1 to 1 µM | > 10 µM | > 10 µM |  |  | 
CCC(=O)CN[C@@H]1CCN(c2ccc(C(=O)Nc3cc(F)c4nc(C)cn4c3)c3nn(C)cc23)C1 [Compound 641] |  |  |  |  | < 0.1 µM | < 0.1 µM | 1 to 10 µM | 1 to 10 µM |  |  | 
Cc1cn2cc(NC(=O)c3ccc(N4CC[C@@H](NC5(CO)CC5)C4)c4cn(C)nc34)cc(F)c2n1 [Compound 643] |  |  |  |  | 0.1 to 1 µM | 0.1 to 1 µM | > 10 µM | > 10 µM |  |  | 
Cc1cn2cc(NC(=O)c3ccc(N4CC[C@@H](NC5CC5(C)C)C4)c4cn(C)nc34)cc(F)c2n1 (stereo partly drawn) [Compound 645] |  |  |  |  | 0.1 to 1 µM | 0.1 to 1 µM | 1 to 10 µM | > 10 µM |  |  | 
Cc1cn2cc(NC(=O)c3ccc(N4CC[C@@H](NC5CC56CCOCC6)C4)c4cn(C)nc34)cc(F)c2n1 (stereo partly drawn) [Compound 649] |  |  |  |  | 0.1 to 1 µM | 0.1 to 1 µM | > 10 µM | > 10 µM |  |  | 
CN[C@@H]1CCN(c2ccc(C(=O)Nc3nc(OC)c4nc(C)cn4c3F)c3nn(C)cc23)C1 [Compound 651] |  |  |  |  | > 10 µM | > 10 µM | > 10 µM | > 10 µM |  |  | 
CCn1cc2c(N3CC[C@@H](NC)C3)cc(OC)c(C(=O)Nc3cc(F)c4nc(C)cn4c3)c2n1 [Compound 653] |  |  |  |  | > 10 µM | > 10 µM | > 10 µM | > 10 µM |  |  | 

From patent publication US20250154169A1, “COMPOUNDS AND METHODS FOR MODULATING SPLICING” (REMIX THERAPEUTICS INC., priority 2021, published 2025)
